These results are taken from patent US20230113609A1, “SSTR5 ANTAGONISTS” (Kallyope, Inc., priority 2019, published 2023).

Molecules are shown by their SMILES.

The target in the first series is T1, human SSTR5 (Homo sapiens, UniProt P35346).
T1 construct: expressed in transfected cells
T1 sequence (P35346 whole entry): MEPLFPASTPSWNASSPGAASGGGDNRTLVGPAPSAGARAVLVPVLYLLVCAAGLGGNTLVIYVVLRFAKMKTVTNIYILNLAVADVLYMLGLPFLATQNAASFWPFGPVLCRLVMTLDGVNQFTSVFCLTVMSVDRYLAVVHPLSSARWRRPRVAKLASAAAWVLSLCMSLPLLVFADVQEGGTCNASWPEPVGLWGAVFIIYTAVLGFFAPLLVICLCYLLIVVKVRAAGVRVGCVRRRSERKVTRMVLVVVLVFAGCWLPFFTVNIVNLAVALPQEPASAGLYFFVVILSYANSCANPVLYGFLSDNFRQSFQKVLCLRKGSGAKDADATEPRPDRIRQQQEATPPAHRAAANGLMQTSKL
Put plainly: Inositol phosphate accumulation assay (IP1 HTRF, antagonist mode). It counts as cell-based. Conditions: CHO-K1 cells co-expressing human SSTR5 with Gqi5, SST28 agonist at concentration generating 90% of full activation. The essentials: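 CHO-K1 cells stably co-expressing human SSTR5 and chimeric Gqi5 were pre-incubated with compound 15 minutes at 37° C, then stimulated with SST28 (30 nM as added, about EC90) for 90 minutes. IP1 read by HTRF (665/620 nm). % inhibition normalized to Max/Min controls; IC50 and maximal inhibition from 4-parameter fit.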
One may read the IC50 as the point on the concentration scale where inhibition reaches its midpoint. Read a high IC50 as lower potency. For the molecule `CCOc1cc(-c2ccc(F)cn2)c(C2CC2)cc1CN1CCC2(CC1)CN([C@H]1CC[C@](C)(C(=O)NCCOCCO)CC1)C(=O)O2` [compound 90], the IC50 is at most 100 nM.

Turning to `CCOc1cc(-c2ccc(F)cc2)c(C2CC2)cc1CN1CCC2(CC1)CN(c1ccc(S(=O)(=O)NCCOCCO)cc1)C(=O)O2` [Example 81, 4-(8-((2-cyclopropyl-5-ethoxy-4′-fluoro-[1,1-biphenyl]-4-yl)methyl)-2-oxo-1-oxa-3,8-diazaspiro[4.5]decan-3-yl)-N-(2-(2-hydroxyethoxy)ethyl)benzenesulfonamide], the IC50 was at most 100 nM.

Molecule `CCOc1cc(-c2ccc(F)cc2)c(C2CC2)cc1CN1CCC2(CC1)CN(c1ccc(C(=O)NCCOCCO)cc1)C(=O)O2` [Example 61, 4-(8-((2-cyclopropyl-5-ethoxy-4′-fluoro-[1,1′-biphenyl]-4-yl)methyl)-2-oxo-1-oxa-3,8-diazaspiro [4.5]decan-3-yl)-N-(2-(2-hydroxyethoxy)ethyl)benzamide] yielded an IC50 of at most 100 nM.

On to `CCOc1cc(C(=O)OC)c(C2CC2)cc1CN1CCC2(CC1)CN(c1ccc(C(=O)NCCCS(=O)(=O)O)cc1)C(=O)O2` [Example 58, 3-(4-(8-(5-cyclopropyl-2-ethoxy-4-(methoxycarbonyl)benzyl)-2-oxo-1-oxa-3,8-diazaspiro[4.5]decan-3-yl)benzamido)propane-1-sulfonic acid], for which the IC50 is at most 100 nM.

`CCOc1cc(C(=O)OC)c(C2CC2)cc1CN1CCC2(CC1)CC(=O)N(c1ccc(C(=O)NCCOCCO)cc1)C2` [Example 26, methyl 2-cyclopropyl-5-ethoxy-4-((2-(4-((2-(2-hydroxyethoxy)ethyl)carbamoyl)phenyl)-3-oxo-2,8-diazaspiro[4.5]decan-8-yl)methyl)benzoate] yielded an IC50 of 100 to 1000 nM.

Take `CCOc1cc(-c2ccc(F)cn2)c(C2CC2)cc1CN1CCC2(CC1)CN(c1ccc(C(=O)NCCOCCO)cc1)C(=O)N2` [Example 74, 4-(8-(5-cyclopropyl-2-ethoxy-4-(5-fluoropyridin-2-yl)benzyl)-2-oxo-1,3,8-triazaspiro[4.5]decan-3-yl)-N-(2-(2-hydroxyethoxy)ethyl)benzamide]: the IC50 was at most 100 nM.

Molecule `CCOc1cc(C(=O)OC)c(C2CC2)cc1CN1CCN(C(=O)Oc2ccc(C(=O)N3CC(CNC[C@H](O)[C@@H](O)[C@H](O)[C@H](O)CO)C3)cc2)CC1` [Example 99, 4-(3-((((2S,3R,4R,5R)-2,3,4,5,6-pentahydroxyhexyl)amino)methyl)azetidine-1-carbonyl)phenyl 4-(5-cyclopropyl-2-ethoxy-4-(methoxycarbonyl)benzyl)piperazine-1-carboxylate] gave an IC50 of 100 to 1000 nM.

In turn, `CCOc1cc(-c2ccc(F)cn2)c(C2CC2)cc1CN1CCC2(CC1)CN([C@H]1CC[C@@](C)(C(=O)NCCOCCO)CC1)C(=O)O2` [compound 89] yielded an IC50 of 100 to 1000 nM.

Take `CCOc1cc(-c2ccc(F)cn2)c(C2CC2)cc1CN1CCC2(CC1)CN([C@H]1CC[C@](C)(C(=O)NCCCS(=O)(=O)O)CC1)C(=O)O2` [compound 91]: the IC50 is at most 100 nM.

`CCOc1cc(C(=O)OC)c(C2CC2)cc1CN1CCC2(CC1)CC(=O)N(c1ccc(C(=O)NCCNC(=O)NC(CO)CO)cc1)C2` [Example 16, methyl 2-cyclopropyl-4-((2-(4-((2-(3-(1,3-dihydroxypropan-2-yl)ureido)ethyl)carbamoyl)phenyl)-3-oxo-2,8-diazaspiro[4.5]decan-8-yl)methyl)-5-ethoxybenzoate] gave a half-maximal inhibitory concentration (IC50) of over 5000 nM.

As for `CCOc1cc(C(=O)OC)c(C2CC2)cc1CN1CCC2(CC1)CC(=O)N(c1ccc(C(=O)NC[C@H](O)[C@@H](O)[C@H](O)[C@H](O)CO)cc1)C2` [Example 37, methyl 2-cyclopropyl-5-ethoxy-4-((3-oxo-2-(4-(((2S,3R,4R,5R)-2,3,4,5,6-pentahydroxyhexyl)carbamoyl)phenyl)-2,8-diazaspiro[4.5]decan-8-yl)methyl)benzoate], the half-maximal inhibitory concentration (IC50) is 1000 to 5000 nM.

In turn, `CCOc1cc(C(=O)OC)c(C2CC2)cc1CN1CCC2(CC1)CC(=O)N(c1ccc(C(=O)NCCCS(N)(=O)=O)cc1)C2` [Example 44, methyl 2-cyclopropyl-5-ethoxy-4-((3-oxo-2-(4-((3-sulfamoylpropyl)carbamoyl)phenyl)-2,8-diazaspiro[4.5]decan-8-yl)methyl)benzoate] gave an IC50 of 100 to 1000 nM.

On to `CCOc1cc(-c2ccc(F)cn2)c(C2CC2)cc1CN1CCC2(CC1)CN([C@H]1CC[C@@](C)(C(=O)NCCCS(=O)(=O)O)CC1)C(=O)O2` [compound 88], for which the IC50 fell in the range of 100 to 1000 nM.

The molecule `CCOc1cc(C(=O)OC)c(C2CC2)cc1CN1CCC2(CC1)CC(=O)N(c1ccc(C(=O)N3CCC(S(N)(=O)=O)CC3)cc1)C2` [Example 52, methyl 2-cyclopropyl-5-ethoxy-4-((3-oxo-2-(4-(4-sulfamoylpiperidine-1-carbonyl)phenyl)-2,8-diazaspiro[4.5]decan-8-yl)methyl)benzoate] had an IC50 of 100 to 1000 nM.

As to `CCOc1cc(C(=O)OC)c(C2CC2)cc1CN1CCC2(CC1)CN(c1ccc(C(=O)NCCOCCO)cc1)C(=O)O2` [Example 56, methyl 2-cyclopropyl-5-ethoxy-4-((3-(4-((2-(2-hydroxyethoxy)ethyl)carbamoyl)phenyl)-2-oxo-1-oxa-3,8-diazaspiro[4.5]decan-8-yl)methyl)benzoate], the IC50 is at most 100 nM.

`CCOc1cc(C(=O)OC)c(C2CC2)cc1CN1CCC2(CC1)CC(=O)N(c1ccc(C(=O)NCCCO)cc1)C2` [Example 27, methyl 2-cyclopropyl-5-ethoxy-4-((2-(4-((3-hydroxypropyl)carbamoyl)phenyl)-3-oxo-2,8-diazaspiro[4.5]decan-8-yl)methyl)benzoate] gave an IC50 of over 5000 nM.

Molecule `CCOc1cc(S(C)(=O)=O)c(C2CC2)cc1CN1CCC2(CC1)CN(c1ccc(S(=O)(=O)N(Cc3ccc(OC)cc3)Cc3ccc(OC)cc3)cc1)C(=O)N2` [compound 86, 4-[8-[(5-cyclopropyl-2-ethoxy-4-methylsulfonyl-phenyl)methyl]-2-oxo-1,3,8-triazaspiro[4.5]decan-3-yl]-N,N-bis[(4-methoxyphenyl)methyl]benzenesulfonamide] displayed an IC50 of at most 100 nM.

The molecule `CCOc1cc(C(=O)OC)c(C2CC2)cc1CN1CCC2(CC1)CC(=O)N(c1ccc(C(=O)NCCOCCOCCO)cc1)C2` [Example 49, methyl 2-cyclopropyl-5-ethoxy-4-((2-(4-((2-(2-(2-hydroxyethoxy)ethoxy)ethyl)carbamoyl)phenyl)-3-oxo-2,8-diazaspiro[4.5]decan-8-yl)methyl)benzoate] showed a half-maximal inhibitory concentration (IC50) of 100 to 1000 nM.

Tested on in the next series: not listed separately
Put plainly: Oral bioavailability of the compounds after oral dosing in rat. Conditions: in vivo, Sprague Dawley rats, IV 1 mg/kg, PO 5 mg/kg, vehicle 5% DMSO + 30% PEG400 + 65% water. On the procedure:
Oral bioavailability of the compounds was determined in Sprague Dawley rats (Compound 90) or Wistar Han rats (Compound 81). The table below summarizes the results. Each compound was dosed intravenously (IV) at 1 mg/kg and orally (PO) 5 mg/kg using the respective vehicles listed below. The compounds display low (<10%) oral bioavailability (F%).
As a reminder, the bioavailability is the share of a dose that reaches the circulation, judged against a reference dose that is usually intravenous. In the case of `CCOc1cc(-c2ccc(F)cn2)c(C2CC2)cc1CN1CCC2(CC1)CN([C@H]1CC[C@](C)(C(=O)NCCOCCO)CC1)C(=O)O2` [compound 90], the bioavailability is 2.6%.

Still in this series, the particulars now being: in vivo, Wistar Han rats, IV 1 mg/kg, PO 5 mg/kg, vehicle 5% DMSO + 30% PEG400 + 65% water.
For the molecule `CCOc1cc(-c2ccc(F)cc2)c(C2CC2)cc1CN1CCC2(CC1)CN(c1ccc(S(=O)(=O)NCCOCCO)cc1)C(=O)O2` [Example 81, 4-(8-((2-cyclopropyl-5-ethoxy-4′-fluoro-[1,1-biphenyl]-4-yl)methyl)-2-oxo-1-oxa-3,8-diazaspiro[4.5]decan-3-yl)-N-(2-(2-hydroxyethoxy)ethyl)benzenesulfonamide], the bioavailability came to 7%.
